Test results reported in ChEMBL document CHEMBL4507267 (2021).

Tests used:
[1] = biological target: STE20/SPS1-related proline-alanine-rich protein kinase (Homo sapiens) (UniProt Q9UEW8); settings: Compound concentration 1000.0 nM
[2] = biological target: Serine/threonine-protein kinase PLK4 (Homo sapiens) (UniProt O00444); settings: Compound concentration 1000.0 nM
[3] = biological target: cGMP-dependent protein kinase 2 (Homo sapiens) (UniProt Q13237); settings: Compound concentration 1000.0 nM
Sequence of cGMP-dependent protein kinase 2 (Homo sapiens) (Q13237 whole entry): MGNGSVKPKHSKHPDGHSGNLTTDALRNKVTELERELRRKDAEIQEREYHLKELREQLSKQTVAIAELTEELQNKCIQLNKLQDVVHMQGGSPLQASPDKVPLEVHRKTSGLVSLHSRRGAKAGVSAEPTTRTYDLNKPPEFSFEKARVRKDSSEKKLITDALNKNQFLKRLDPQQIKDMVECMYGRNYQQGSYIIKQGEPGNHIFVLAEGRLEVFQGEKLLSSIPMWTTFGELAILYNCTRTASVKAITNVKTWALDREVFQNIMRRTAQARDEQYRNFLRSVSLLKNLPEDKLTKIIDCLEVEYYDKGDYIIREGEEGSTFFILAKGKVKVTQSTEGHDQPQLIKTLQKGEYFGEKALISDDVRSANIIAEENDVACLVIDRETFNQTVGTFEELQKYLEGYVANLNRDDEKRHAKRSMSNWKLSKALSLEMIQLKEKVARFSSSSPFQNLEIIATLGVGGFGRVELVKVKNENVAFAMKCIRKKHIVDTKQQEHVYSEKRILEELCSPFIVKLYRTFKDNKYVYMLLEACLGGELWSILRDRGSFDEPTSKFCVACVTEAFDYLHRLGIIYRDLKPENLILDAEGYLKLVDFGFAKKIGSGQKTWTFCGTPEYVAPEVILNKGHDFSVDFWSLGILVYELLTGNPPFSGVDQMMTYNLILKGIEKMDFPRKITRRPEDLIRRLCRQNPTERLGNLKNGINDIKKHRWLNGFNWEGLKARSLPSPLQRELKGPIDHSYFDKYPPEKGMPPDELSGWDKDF

[4] = biological target: Fibroblast growth factor receptor 3 (Homo sapiens) (UniProt P22607); settings: Compound concentration 1000.0 nM
[5] = biological target: Mitogen-activated protein kinase kinase kinase 20 (Homo sapiens) (UniProt Q9NYL2); settings: Compound concentration 1000.0 nM
[6] = biological target: Serine/threonine-protein kinase PAK 4 (Homo sapiens) (UniProt O96013); settings: Compound concentration 1000.0 nM
[7] = biological target: Serine/threonine-protein kinase Nek6 (Homo sapiens) (UniProt Q9HC98); settings: Compound concentration 1000.0 nM
Sequence of Serine/threonine-protein kinase Nek6 (Homo sapiens) (Q9HC98 whole entry): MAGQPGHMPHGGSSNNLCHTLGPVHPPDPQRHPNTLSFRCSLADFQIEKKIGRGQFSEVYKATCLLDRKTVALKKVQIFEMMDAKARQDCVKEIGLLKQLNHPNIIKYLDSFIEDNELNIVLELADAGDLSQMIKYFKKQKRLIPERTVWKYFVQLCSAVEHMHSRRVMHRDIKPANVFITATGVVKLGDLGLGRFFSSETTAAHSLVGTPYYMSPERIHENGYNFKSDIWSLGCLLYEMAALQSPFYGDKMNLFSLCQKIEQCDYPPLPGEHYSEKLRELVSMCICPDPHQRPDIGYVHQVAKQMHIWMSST

[8] = biological target: Serine/threonine-protein kinase mTOR (Homo sapiens) (UniProt P42345); settings: Compound concentration 1000.0 nM
[9] = tested on: Mast/stem cell growth factor receptor Kit (Homo sapiens), P10721 [A829P]; settings: Compound concentration 1000.0 nM
[10] = biological target: Tyrosine-protein kinase Tec (Homo sapiens) (UniProt P42680); settings: Compound concentration 1000.0 nM
Sequence of Tyrosine-protein kinase Tec (Homo sapiens) (P42680 whole entry): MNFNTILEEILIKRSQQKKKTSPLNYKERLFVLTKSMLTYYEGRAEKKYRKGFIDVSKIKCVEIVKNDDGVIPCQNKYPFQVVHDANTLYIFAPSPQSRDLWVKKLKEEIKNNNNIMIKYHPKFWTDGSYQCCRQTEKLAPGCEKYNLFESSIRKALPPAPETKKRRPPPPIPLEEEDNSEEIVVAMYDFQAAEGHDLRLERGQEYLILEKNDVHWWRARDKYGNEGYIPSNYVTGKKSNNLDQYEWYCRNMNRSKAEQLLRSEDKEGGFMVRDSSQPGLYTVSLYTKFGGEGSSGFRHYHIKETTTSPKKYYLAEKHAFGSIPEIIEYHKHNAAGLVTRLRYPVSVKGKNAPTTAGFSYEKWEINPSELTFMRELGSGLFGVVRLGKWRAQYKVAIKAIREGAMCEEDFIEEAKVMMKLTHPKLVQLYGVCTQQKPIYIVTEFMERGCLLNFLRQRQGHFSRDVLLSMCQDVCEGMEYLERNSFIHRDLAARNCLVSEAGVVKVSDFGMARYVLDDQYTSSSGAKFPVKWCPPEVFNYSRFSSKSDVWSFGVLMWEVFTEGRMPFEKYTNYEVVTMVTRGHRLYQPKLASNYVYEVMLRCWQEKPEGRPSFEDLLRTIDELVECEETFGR

[11] = biological target: Serine/threonine-protein kinase NLK (Homo sapiens) (UniProt Q9UBE8); settings: Compound concentration 1000.0 nM
[12] = biological target: Serine/threonine-protein kinase 17B (Homo sapiens) (UniProt O94768); settings: Compound concentration 1000.0 nM
[13] = biological target: Cyclin-dependent kinase 15 (Homo sapiens) (UniProt Q96Q40); settings: Compound concentration 1000.0 nM
[14] = biological target: Leukocyte tyrosine kinase receptor (Homo sapiens) (UniProt P29376); settings: Compound concentration 1000.0 nM
[15] = biological target: Mu-type opioid receptor (Homo sapiens) (UniProt P35372); settings: Compound concentration 10.0 uM
[16] = biological target: Serine/threonine-protein kinase MARK2 (Homo sapiens) (UniProt Q7KZI7); settings: Compound concentration 1000.0 nM
[17] = biological target: Ephrin type-A receptor 5 (Homo sapiens) (UniProt P54756); settings: Compound concentration 1000.0 nM
[18] = biological target: Serine/threonine-protein kinase NIM1 (Homo sapiens) (UniProt Q8IY84); settings: Compound concentration 1000.0 nM
[19] = biological target: Serine/threonine-protein kinase ICK (Homo sapiens) (UniProt Q9UPZ9); settings: Compound concentration 1000.0 nM
[20] = biological target: Phosphatidylinositol 5-phosphate 4-kinase type-2 beta (Homo sapiens) (UniProt P78356); settings: Compound concentration 1000.0 nM
[21] = biological target: Tyrosine-protein kinase JAK1 (Homo sapiens) (UniProt P23458); settings: Compound concentration 1000.0 nM
[22] = tested on: Epidermal growth factor receptor (Homo sapiens), P00533 [UNDEFINED MUTATION]; settings: Compound concentration 1000.0 nM
Sequence of Epidermal growth factor receptor (Homo sapiens), P00533 [UNDEFINED MUTATION] (P00533 whole entry, looked up, change not shown): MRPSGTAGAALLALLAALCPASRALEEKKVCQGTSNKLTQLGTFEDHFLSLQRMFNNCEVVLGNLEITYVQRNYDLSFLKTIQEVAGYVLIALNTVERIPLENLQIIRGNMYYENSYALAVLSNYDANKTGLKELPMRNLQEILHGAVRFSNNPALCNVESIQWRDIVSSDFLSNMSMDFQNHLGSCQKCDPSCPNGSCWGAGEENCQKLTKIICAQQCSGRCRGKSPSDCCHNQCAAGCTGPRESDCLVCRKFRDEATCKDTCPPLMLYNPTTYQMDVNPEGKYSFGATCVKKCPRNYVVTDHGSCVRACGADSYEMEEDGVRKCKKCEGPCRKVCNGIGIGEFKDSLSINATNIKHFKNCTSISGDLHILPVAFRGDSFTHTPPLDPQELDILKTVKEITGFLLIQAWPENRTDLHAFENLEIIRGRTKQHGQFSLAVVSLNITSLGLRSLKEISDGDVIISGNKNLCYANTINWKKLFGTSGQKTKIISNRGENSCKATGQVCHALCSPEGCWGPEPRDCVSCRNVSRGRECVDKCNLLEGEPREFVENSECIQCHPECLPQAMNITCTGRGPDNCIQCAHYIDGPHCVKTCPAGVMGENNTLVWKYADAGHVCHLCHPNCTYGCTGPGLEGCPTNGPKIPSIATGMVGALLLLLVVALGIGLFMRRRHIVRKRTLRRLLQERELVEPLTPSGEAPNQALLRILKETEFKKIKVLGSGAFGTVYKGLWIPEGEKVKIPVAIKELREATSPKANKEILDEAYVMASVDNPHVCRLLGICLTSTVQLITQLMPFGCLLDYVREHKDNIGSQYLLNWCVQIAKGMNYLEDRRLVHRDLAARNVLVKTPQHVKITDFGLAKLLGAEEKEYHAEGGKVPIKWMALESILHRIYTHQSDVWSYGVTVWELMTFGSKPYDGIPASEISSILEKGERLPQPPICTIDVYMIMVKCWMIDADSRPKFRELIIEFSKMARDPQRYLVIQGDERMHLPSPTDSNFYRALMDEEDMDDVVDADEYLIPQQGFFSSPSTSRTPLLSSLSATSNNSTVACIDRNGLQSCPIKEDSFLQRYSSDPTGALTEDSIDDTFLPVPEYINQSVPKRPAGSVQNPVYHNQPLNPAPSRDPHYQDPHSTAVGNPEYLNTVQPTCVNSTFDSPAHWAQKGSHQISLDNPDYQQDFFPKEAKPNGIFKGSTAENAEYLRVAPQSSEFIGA

[23] = biological target: Glycogen synthase kinase-3 beta (Homo sapiens) (UniProt P49841); settings: Compound concentration 1000.0 nM
[24] = tested on: Mast/stem cell growth factor receptor Kit (Homo sapiens), P10721 [D816V]; settings: Compound concentration 1000.0 nM
[25] = biological target: Platelet-derived growth factor receptor alpha (Homo sapiens) (UniProt P16234); settings: Compound concentration 1000.0 nM
[26] = biological target: Ephrin type-B receptor 3 (Homo sapiens) (UniProt P54753); settings: Compound concentration 1000.0 nM
[27] = biological target: High affinity nerve growth factor receptor (Homo sapiens) (UniProt P04629); settings: Compound concentration 1000.0 nM
[28] = biological target: cAMP-dependent protein kinase catalytic subunit PRKX (Homo sapiens) (UniProt P51817); settings: Compound concentration 1000.0 nM
[29] = biological target: Eukaryotic translation initiation factor 2-alpha kinase 1 (Homo sapiens) (UniProt Q9BQI3); settings: Compound concentration 1000.0 nM
[30] = biological target: Cytoplasmic tyrosine-protein kinase BMX (Homo sapiens) (UniProt P51813); settings: Compound concentration 1000.0 nM
[31] = biological target: Macrophage colony-stimulating factor 1 receptor (Homo sapiens) (UniProt P07333); settings: Compound concentration 1000.0 nM
[32] = biological target: Bone morphogenetic protein receptor type-1B (Homo sapiens) (UniProt O00238); settings: Compound concentration 1000.0 nM
Sequence of Bone morphogenetic protein receptor type-1B (Homo sapiens) (O00238 whole entry): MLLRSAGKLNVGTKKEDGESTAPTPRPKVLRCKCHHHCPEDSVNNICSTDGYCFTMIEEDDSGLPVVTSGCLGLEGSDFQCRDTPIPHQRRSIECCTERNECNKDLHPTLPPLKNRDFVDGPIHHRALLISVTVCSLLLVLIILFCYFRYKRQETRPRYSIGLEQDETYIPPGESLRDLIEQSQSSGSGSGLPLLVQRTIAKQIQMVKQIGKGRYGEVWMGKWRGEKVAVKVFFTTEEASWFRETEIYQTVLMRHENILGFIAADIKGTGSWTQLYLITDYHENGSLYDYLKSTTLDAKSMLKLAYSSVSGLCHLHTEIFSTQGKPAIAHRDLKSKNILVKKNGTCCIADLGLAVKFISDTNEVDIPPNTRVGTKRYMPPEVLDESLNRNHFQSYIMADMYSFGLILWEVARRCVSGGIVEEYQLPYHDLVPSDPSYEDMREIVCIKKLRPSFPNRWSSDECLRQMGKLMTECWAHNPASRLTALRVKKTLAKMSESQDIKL

[33] = tested on: Receptor-type tyrosine-protein kinase FLT3 (Homo sapiens), P36888 [N841I]; settings: Compound concentration 1000.0 nM
[34] = tested on: Phosphatidylinositol 4,5-bisphosphate 3-kinase catalytic subunit alpha isoform (Homo sapiens), P42336 [E542K]; settings: Compound concentration 1000.0 nM
Sequence of Phosphatidylinositol 4,5-bisphosphate 3-kinase catalytic subunit alpha isoform (Homo sapiens), P42336 [E542K] (P42336 whole entry E542K, canonical isoform): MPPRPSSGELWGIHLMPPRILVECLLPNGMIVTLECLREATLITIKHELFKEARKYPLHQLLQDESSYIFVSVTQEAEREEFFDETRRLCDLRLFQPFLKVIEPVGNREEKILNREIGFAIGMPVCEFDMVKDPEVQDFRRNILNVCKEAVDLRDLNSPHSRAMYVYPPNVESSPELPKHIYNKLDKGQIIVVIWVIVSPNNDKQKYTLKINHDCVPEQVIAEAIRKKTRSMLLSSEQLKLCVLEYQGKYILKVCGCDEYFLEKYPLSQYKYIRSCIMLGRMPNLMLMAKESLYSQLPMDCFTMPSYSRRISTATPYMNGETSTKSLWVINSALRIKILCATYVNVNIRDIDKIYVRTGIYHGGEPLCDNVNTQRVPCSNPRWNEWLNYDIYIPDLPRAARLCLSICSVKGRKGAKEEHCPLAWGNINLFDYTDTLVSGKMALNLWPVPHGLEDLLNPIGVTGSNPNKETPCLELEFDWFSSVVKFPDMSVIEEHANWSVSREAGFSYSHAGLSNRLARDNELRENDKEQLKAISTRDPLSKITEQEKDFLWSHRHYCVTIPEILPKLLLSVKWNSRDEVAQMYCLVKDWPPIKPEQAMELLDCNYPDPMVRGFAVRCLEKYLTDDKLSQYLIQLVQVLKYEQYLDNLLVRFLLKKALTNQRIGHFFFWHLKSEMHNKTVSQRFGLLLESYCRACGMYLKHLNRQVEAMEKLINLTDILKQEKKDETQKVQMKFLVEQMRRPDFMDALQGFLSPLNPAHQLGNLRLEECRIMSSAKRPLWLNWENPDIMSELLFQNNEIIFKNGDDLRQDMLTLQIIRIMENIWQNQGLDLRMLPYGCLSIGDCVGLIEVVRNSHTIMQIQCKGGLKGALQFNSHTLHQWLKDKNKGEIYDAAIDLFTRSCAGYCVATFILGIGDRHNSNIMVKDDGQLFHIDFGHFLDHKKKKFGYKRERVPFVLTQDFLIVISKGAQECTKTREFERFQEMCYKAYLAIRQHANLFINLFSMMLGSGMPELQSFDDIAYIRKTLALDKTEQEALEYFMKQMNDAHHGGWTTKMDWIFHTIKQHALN

[35] = biological target: Tyrosine-protein kinase BTK (Homo sapiens) (UniProt Q06187); settings: Compound concentration 1000.0 nM
[36] = biological target: Ribosomal protein S6 kinase alpha-2 (Homo sapiens) (UniProt Q15349); settings: Compound concentration 1000.0 nM
[37] = biological target: Discoidin domain-containing receptor 2 (Homo sapiens) (UniProt Q16832); settings: Compound concentration 1000.0 nM
[38] = biological target: Beta-1 adrenergic receptor (Homo sapiens) (UniProt P08588); settings: Compound concentration 10.0 uM
[39] = biological target: SRSF protein kinase 2 (Homo sapiens) (UniProt P78362); settings: Compound concentration 1000.0 nM
Histamine H2 receptor = Histamine H2 receptor (Homo sapiens, UniProt P25021); settings: Compound concentration 10.0 uM
[40] = biological target: Aurora kinase B (Homo sapiens) (UniProt Q96GD4); settings: Compound concentration 1000.0 nM
[41] = biological target: Calcium/calmodulin-dependent protein kinase type 1D (Homo sapiens) (UniProt Q8IU85); settings: Compound concentration 1000.0 nM
[42] = biological target: Testis-specific serine/threonine-protein kinase 3 (Homo sapiens) (UniProt Q96PN8); settings: Compound concentration 1000.0 nM
[43] = biological target: Proto-oncogene tyrosine-protein kinase Src (Homo sapiens) (UniProt P12931); settings: Compound concentration 1000.0 nM
[44] = biological target: Alpha-1D adrenergic receptor (Homo sapiens) (UniProt P25100); settings: Compound concentration 10.0 uM
Sequence of Alpha-1D adrenergic receptor (Homo sapiens) (P25100 whole entry): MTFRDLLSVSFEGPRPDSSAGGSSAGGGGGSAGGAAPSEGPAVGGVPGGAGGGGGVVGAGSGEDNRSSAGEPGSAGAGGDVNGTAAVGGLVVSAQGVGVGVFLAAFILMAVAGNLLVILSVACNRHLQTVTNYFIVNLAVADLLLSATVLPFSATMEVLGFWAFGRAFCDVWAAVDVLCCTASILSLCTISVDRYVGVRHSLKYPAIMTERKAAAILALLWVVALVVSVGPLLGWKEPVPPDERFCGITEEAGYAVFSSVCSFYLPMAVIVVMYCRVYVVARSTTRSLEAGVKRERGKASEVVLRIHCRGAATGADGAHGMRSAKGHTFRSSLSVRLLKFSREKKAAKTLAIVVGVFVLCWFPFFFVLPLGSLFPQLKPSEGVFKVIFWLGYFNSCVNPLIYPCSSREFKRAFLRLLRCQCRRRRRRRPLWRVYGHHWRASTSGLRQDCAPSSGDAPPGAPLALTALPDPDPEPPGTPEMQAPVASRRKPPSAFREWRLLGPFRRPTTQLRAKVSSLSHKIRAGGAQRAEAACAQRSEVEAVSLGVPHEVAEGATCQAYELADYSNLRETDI

Cc1c(NC(=O)c2cc(C(N)=O)nc3cc(F)ccc23)c(C(F)(F)F)nn1Cc1ccc(C#N)cc1 [BAY-876]
residual activity [1]: 94% | residual activity [2]: 100% | residual activity [3]: 74% | residual activity [4]: 99% | residual activity [5]: 100% | residual activity [6]: 98% | residual activity [7]: 100% | residual activity [8]: 93% | residual activity [9]: 64% | residual activity [10]: 85% | residual activity [11]: 100% | residual activity [12]: 72% | residual activity [13]: 100% | residual activity [14]: 82% | inhibition [15]: 6.68% | residual activity [16]: 97% | residual activity [17]: 100% | residual activity [18]: 91% | residual activity [19]: 100% | residual activity [20]: 88% | residual activity [21]: 86% | residual activity [22]: 59% | residual activity [23]: 88% | residual activity [24]: 88% | residual activity [25]: 73% | residual activity [26]: 96% | residual activity [27]: 83% | residual activity [28]: 92% | residual activity [29]: 100% | residual activity [30]: 85% | residual activity [31]: 83% | residual activity [32]: 77% | residual activity [33]: 53% | residual activity [34]: 84% | residual activity [35]: 70% | residual activity [36]: 85% | residual activity [37]: 66% | inhibition [38]: 28.5% | residual activity [39]: 100% | inhibition (Histamine H2 receptor): 30.4% | residual activity [40]: 72% | residual activity [41]: 100% | residual activity [42]: 82% | residual activity [43]: 81% | inhibition [44]: 7.36%

Cc1c(NC(=O)c2cc(C(N)=O)nc3cc(F)ccc23)c(C(F)(F)F)nn1Cc1ccc(C(C)(C)C)cc1 [BAY-588]
residual activity [1]: 100% | residual activity [2]: 100% | residual activity [3]: 100% | residual activity [4]: 92% | residual activity [5]: 100% | residual activity [6]: 100% | residual activity [7]: 86% | residual activity [8]: 86% | residual activity [9]: 98% | residual activity [10]: 94% | residual activity [11]: 100% | residual activity [12]: 100% | residual activity [13]: 100% | residual activity [14]: 83% | inhibition [15]: 4.84% | residual activity [16]: 100% | residual activity [17]: 74% | residual activity [18]: 100% | residual activity [19]: 61% | residual activity [20]: 91% | residual activity [21]: 100% | residual activity [22]: 100% | residual activity [23]: 100% | residual activity [24]: 82% | residual activity [25]: 100% | residual activity [26]: 100% | residual activity [27]: 89% | residual activity [28]: 94% | residual activity [29]: 100% | residual activity [30]: 88% | residual activity [31]: 100% | residual activity [32]: 82% | residual activity [33]: 52% | residual activity [34]: 43% | residual activity [35]: 100% | residual activity [36]: 100% | residual activity [37]: 93% | inhibition [38]: 21.2% | residual activity [39]: 97% | inhibition (Histamine H2 receptor): 32.4% | residual activity [40]: 100% | residual activity [41]: 84% | residual activity [42]: 100% | residual activity [43]: 100% | inhibition [44]: 2.92%
